# Measurements taken from patent publication US20220257774A1, “AROMATIC AMINE AR AHD BET TARGETING PROTEIN DEGRADATION CHIMERA COMPOUND AND USE” (HINOVA PHARMACEUTICALS INC., priority 2019, published 2022).
# Read-outs that look alike come from different tables or passages of the source.
# Key:
# LNCaP/AR cells = experiment: Inhibition of the proliferation of LNCap/AR cells (CCK-8); format: cell-based; settings: read-out: LNCap/AR IC50
# Method in brief: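 LNCaP/AR cells (1000/well, RPMI1640 + 10% FBS) were treated for 6 days at 37 °C with 9-point 3-fold dilutions from 10 μM final, 0.1% DMSO, in duplicate. Viability was read by CCK-8 absorbance at 450 nm after 1 h, and IC50 came from a dose-response-inhibition fit.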
# 22RV1 cells = experiment: Inhibition of the proliferation of drug-resistant prostate cancer cell 22RV1 (CCK-8); format: cell-based; settings: 22RV1 cells (enzalutamide-resistant), same method
# Method: (1) Experimental materials and instruments: LNCaP/AR cell line and 22RV1 cell line (provided by Sichuan Kangcheng Biotechnology Co., Ltd.) Fetal bovine serum FBS (Gibco, Cat. No. 10099-141) 0.01M PBS (Biosharp, Cat. No. 162262) RIPM1640 medium (Hyclone, Cat. No. 308090.01) Penicillin-Streptomycin (Hyclone, Cat. No. SV30010) Cell counting kit-8 (Signalway Antibody, Cat. No. CP002) DMSO (Sigma, Cat. No. D5879) Centrifuge Tube, 15 ml (Excell Bio, Cat. No. CS015-0001) Cell Culture Dish, (Excell Bio, Cat. No. CS016-0128) 96-well cell culture plate (Corning, Cat. No. 3599) Microplate reader (Thermo Multiskan MK3 type)
# a. Preparation of Buffer Cell culture medium: RIPM1640 medium, 10% FBS, 1% Pen Strep: PBS buffer: PBS powder was dissolved in 2 L of ultrapure water and sterilized. b. Experimental Procedures 1) LNCaP/AR cells were subcultured in cell culture media, and then the cells in good growth condition were seeded in a 96-well plate at 80 μL/well (1000 cells/well), and cultured overnight in a 37° C., 5% CO2 cell incubator. 2) The drug was prepared into a 10 mM stock solution with dimethyl sulfoxide (DMSO). Prior to use, the stock solution was diluted in a ratio of […] with DMSO, and then diluted at a 3-fold gradient to obtain 9 serial concentrations. Then, each concentration of compound was further diluted in a ratio of 1:200 with the culture medium (to ensure that the DMSO concentration in the culture system was 0.1%), and two wells were set for each concentration. 20 μL of the diluted compound solution was added to the well of the cell culture (with a final concentration of 10 μM, 3.3 μM, 1.1 μM . . . ), and then the plate was gently tapped to thoroughly mix. In addition, the experiment included 3 negative control wells only containing cells and 3 blank control wells only containing culture medium (6 wells were each added with DMSO diluted in a ratio of 1:200 with 20 μL of culture medium). c. Result Detection: 1) After culturing for 6 days, 10 μL of CCK-8 was added to each well, and the plate was further incubated for 1 h in a 37° C., 5% CO2 cell incubator. 2) The absorbance (OD value) was measured at 450 nm with a multifunctional microplate reader. 3) The data was analyzed by the Dose-response-inhibition equation in the software GraphPad Prism5, and the IC50 value was obtained. 2. Biological assay of the inhibition on the proliferation of other drug-resistant prostate cancer cells
# The same test method was used to determine the inhibitory activity of the compound according to the present invention against drug-resistant prostate cancer cell 22RV1.
# [1] = LNCaP/AR cells, 6 days culture, CCK-8
# [2] = 144 h, LNCaP/AR cells, 6 days culture, CCK-8
Compound,IC50 (LNCaP/AR cells; [1]) [nM],IC50 (22RV1 cells) [nM],IC50 (LNCaP/AR cells; [2]) [nM],IC50 (22RV1 cells; Homo sapiens) [nM],"IC50 (LNCaP/AR cells; LNCaP/AR, 144 h) [nM]"
"Cc1ccc(-c2c(C)noc2C)cc1N(CC1CCC(Nc2ccc3c(c2)C(=O)N(C2CCC(=O)NC2=O)C3=O)CC1)c1ccc(C2(C#N)CC2)cc1 (stereo not shown) [Compound 116, 1-(4-((5-(3,5-Dimethylisoxazol-4-yl)-2-methylphenyl)((((1r,4r)-4-((2-(2,6-dioxopiperidin-3-yl)-1,3-dioxoisoindolin-5-yl)amino)cyclohexyl)methyl)amino)phenyl)cyclopropanecarbonitrile]",101 to 500,> 2000,–,–,–
"Cc1ccc(-c2c(C)noc2C)cc1N(CCCC1CCN(c2ccc3c(c2)CN(C2CCC(=O)NC2=O)C3=O)CC1)c1ccc(C2(C#N)CC2)cc1 (stereo not shown) [Compound 32, 1-(4-((5-(3,5-Dimethylisoxazol-4-yl)-2-methylphenyl)(3-(1-(2-(2,6-dioxopiperidin-3-yl)-1-oxoisoindolin-5-yl)piperidin-4-yl)propyl)amino)phenyl)cyclopropane-1-nitrile]",–,–,101 to 500,< 100,–
"Cc1ccc(-c2c(C)noc2C)cc1N(CCCNc1cc2c(cc1F)C(=O)N(C1CCC(=O)NC1=O)C2)c1ccc(C2(C#N)CC2)cc1 (stereo not shown) [Compound 176, 1-(4-((5-(3,5-dimethylisoxazol-4-yl)-2-methylphenyl)(3-((2-(2,6-dioxopiperidin-3-yl)-6-fluoro-1-oxoisoindolin-5-yl)amino)propyl)amino)phenyl)cyclopropane-1-nitrile]",–,–,< 100,> 2000,–
"Cc1ccc(-c2c(C)noc2C)cc1N(CCCCNc1cc2c(cc1F)CN(C1CCC(=O)NC1=O)C2=O)c1ccc(C2(C#N)CC2)cc1 (stereo not shown) [Compound 42, 1-(4-((5-(3,5-Dimethylisoxazol-4-yl)-2-methylphenyl)(4-((2-(2,6-dioxopiperidin-3-yl)-6-fluoro-3-oxoisoindolin-5-yl)amino)butyl)amino)phenyl)cyclopropane-1-nitrile]",–,–,101 to 500,501 to 2000,–
"Cc1ccc(-c2c(C)noc2C)cc1N(CCCOC1CN(c2ccc3c(c2)CN(C2CCC(=O)NC2=O)C3=O)C1)c1ccc(C2(C#N)CC2)cc1 (stereo not shown) [Compound 122, 1-(4-((5-(3,5-dimethylisoxazol-4-yl)-2-methylphenyl)(3-((1-(2-(2,6-dioxopiperidin-3-yl)-1-oxoisoindolin-5-yl)azetidin-3-yl)oxy)propyl)amino)phenyl)cyclopropane-1-nitrile]",–,–,< 100,< 100,–
Cc1ccc(-c2c(C)noc2C)cc1N(c1ccc(C2(C#N)CC2)cc1)C1CN([C@H]2CC[C@H](Nc3cc4c(cc3F)C(=O)N(C3CCC(=O)NC3=O)C4=O)CC2)C1 (stereo partly shown) [Compound 74],> 2000,> 2000,–,–,–
"Cc1ccc(-c2c(C)noc2C)cc1N(CCC(C)CCNc1cc2c(cc1F)C(=O)N(C1CCC(=O)NC1=O)C2)c1ccc(C2(C#N)CC2)cc1 (stereo not shown) [Compound 191, 1-(4-((5-(3,5-dimethylisoxazol-4-yl)-2-methylphenyl)(5-((2-(2,6-dioxopiperidin-3-yl)-6-fluoro-1-oxoisoindolin-5-yl)amino)-3-methylpentanyl)amino)phenyl)cyclopropane-1-carbonitrile]",–,–,> 2000,501 to 2000,–
"Cc1ccc(-c2c(C)noc2C)cc1N(CCCCNc1ccc2c(c1)CN(C1CCC(=O)NC1=O)C2=O)c1ccc(C2(C#N)CC2)cc1 (stereo not shown) [Compound 62, 1-(4-((5-(3,5-dimethylisoxazol-4-yl)-2-methylphenyl)(4-((2-(2,6-dioxopiperidin-3-yl)-1-oxoisoindolin-5-yl)amino)butyl)amino)phenyl)cyclopropane-1-nitrile]",–,–,< 100,< 100,–
Cc1ccc(-c2c(C)noc2C)cc1N(C[C@H]1C[C@@H]1CNc1cc2c(cc1F)C(=O)N(C1CCC(=O)NC1=O)C2=O)c1ccc(C2(C#N)CC2)cc1 (stereo partly shown) [Compound 181],–,–,> 2000,101 to 500,–
"Cc1ccc(-c2c(C)noc2C)cc1N(CC1(COC2CN(c3cc4c(cc3F)C(=O)N(C3CCC(=O)NC3=O)C4=O)C2)CC1)c1ccc(C2(C#N)CC2)cc1 (stereo not shown) [Compound 138, 1-(4-((5-(3,5-dimethylisoxazol-4-yl)-2-methylphenyl)((1-(((1-(2-(2,6-dioxopiperidin-3-yl)-6-fluoro-1,3-dioxoisoindolin-5-yl)azetidin-3-yl)oxy)methyl)cyclopropyl)methyl)amino)phenyl)cyclopropane-1-nitrile]",–,–,101 to 500,> 2000,–
"Cc1ccc(-c2c(C)noc2C)cc1N(CCC(C)CCNc1ccc2c(c1)C(=O)N(C1CCC(=O)NC1=O)C2=O)c1ccc(C2(C#N)CC2)cc1 (stereo not shown) [Compound 192, 1-(4-((5-(3,5-dimethylisoxazol-4-yl)-2-methylphenyl)(5-((2-(2,6-dioxopiperidin-3-yl)-1,3-dioxoisoindolin-5-yl)amino)-3-methylpentanyl)amino)phenyl)cyclopropane-1-carbonitrile]",–,–,501 to 2000,< 100,–
"Cc1ccc(-c2c(C)noc2C)cc1N(CC1CCC(CNc2ccc3c(c2)CN(C2CCC(=O)NC2=O)C3=O)CC1)c1ccc(C#N)c(Cl)c1 (stereo not shown) [Compound 133, 2-Chloro-4-((5-(3,5-dimethylisoxazol-4-yl)-2-methylphenyl)((1r,4r)-4-((2-(2,6-dioxopiperidin-3-yl)-1-oxoisoindolin-5-yl)amino)methyl)cyclohexyl)methyl)amino)benzonitrile]",–,–,–,< 100,< 100
"Cc1ccc(-c2c(C)noc2C)cc1N(CC1CN([C@H]2C[C@H](Nc3cc4c(cc3F)C(=O)N(C3CCC(=O)NC3=O)C4=O)C2)C1)c1ccc(C2(C#N)CC2)cc1 (stereo partly shown) [Compound 72, 1-(4-((5-(3,5-dimethylisoxazol-4-yl)-2-methylphenyl][(1-((1r,3r)-3-((2-(2,6-dioxopiperidin-3-yl)-6-fluoro-1,3-dioxoisoindolin-5-yl)amino)cyclobutyl)azetidin-3-yl)methyl)amino)phenyl)cyclopropane-1-nitrile]",–,–,> 2000,> 2000,–
"Cc1ccc(-c2c(C)noc2C)cc1N(CC1CCC(Nc2cc3c(cc2F)C(=O)N(C2CCC(=O)NC2=O)C3)CC1)c1ccc(C2(C#N)CC2)cc1 (stereo not shown) [Compound 163, 1-(4-((5-(3,5-Dimethylisoxazol-4-yl)-2-methylphenyl)(((1s,4s)-4-((2-(2,6-dioxopiperidin-3)-6-fluoro-1-isoindolinone-5-yl)amino)cyclohexyl)methyl)amino)phenyl)phenylcyclopropanecarbonitrile]",< 100,> 2000,–,–,–
"Cc1ccc(-c2c(C)noc2C)cc1N(CC1CCN(C2CCN(c3ccc4c(c3)C(=O)N(C3CCC(=O)NC3=O)C4=O)CC2)CC1)c1ccc(C2(C#N)CC2)cc1 (stereo not shown) [Compound 77, 1-(4-((5-(3,5-dimethylisoxazol-4-yl)-2-methylphenyl)((1′-(2-(2,6-dioxopiperidin-3-yl)-1,3-dioxoisoindolin-5-yl)-[1,4′-bipiperidine]-4-yl)methyl)amino)phenyl)cyclopropane-1-nitrile]",–,–,–,> 2000,> 2000
Cc1ccc(-c2c(C)noc2C)cc1N(CC1CN(c2cc3c(cc2F)CN(C2CCC(=O)NC2=O)C3=O)C1)c1ccc(C2(C#N)CC2)cc1 (stereo not shown) [Compound 155],–,–,> 2000,> 2000,–
"Cc1ccc(-c2c(C)noc2C)cc1N(CCN1CCN(c2ccc3c(c2)C(=O)N(C2CCC(=O)NC2=O)C3=O)CC1)c1ccc(C2(C#N)CC2)cc1 (stereo not shown) [Compound 64, 1-(4-((5-(3,5-Dimethylisoxazol-4-yl)-2-methylphenyl)(2-(4-(2-(2,6-dioxopiperidin-3-yl)-1,3-dioxoisoindolin-5-yl)piperazin-1-yl)ethyl)amino)phenyl)cyclopropane-1-nitrile]",–,–,501 to 2000,< 100,–
